In patent publication US7060722B2, “Proline derivatives and use thereof as drugs” (Mitsubishi Pharma Corporation, priority 2000, dated 2006):
pIC50: −log10 of the molar value. Counter-ions that a name gives are not always drawn.

Assays:
Human plasma DPP-IV = target: T1, Human plasma DPP-IV (Homo sapiens, UniProt P27487); experiment: Plasma DPP-IV inhibitory activity, fluorescence assay (human plasma); format: biochemical; conditions: human plasma (10-fold diluted), Gly-Pro-MCA substrate, room temperature 60 min
T1 construct: from tissue; host or cells: human plasma
T1 sequence (P27487 39-766 limits assumed): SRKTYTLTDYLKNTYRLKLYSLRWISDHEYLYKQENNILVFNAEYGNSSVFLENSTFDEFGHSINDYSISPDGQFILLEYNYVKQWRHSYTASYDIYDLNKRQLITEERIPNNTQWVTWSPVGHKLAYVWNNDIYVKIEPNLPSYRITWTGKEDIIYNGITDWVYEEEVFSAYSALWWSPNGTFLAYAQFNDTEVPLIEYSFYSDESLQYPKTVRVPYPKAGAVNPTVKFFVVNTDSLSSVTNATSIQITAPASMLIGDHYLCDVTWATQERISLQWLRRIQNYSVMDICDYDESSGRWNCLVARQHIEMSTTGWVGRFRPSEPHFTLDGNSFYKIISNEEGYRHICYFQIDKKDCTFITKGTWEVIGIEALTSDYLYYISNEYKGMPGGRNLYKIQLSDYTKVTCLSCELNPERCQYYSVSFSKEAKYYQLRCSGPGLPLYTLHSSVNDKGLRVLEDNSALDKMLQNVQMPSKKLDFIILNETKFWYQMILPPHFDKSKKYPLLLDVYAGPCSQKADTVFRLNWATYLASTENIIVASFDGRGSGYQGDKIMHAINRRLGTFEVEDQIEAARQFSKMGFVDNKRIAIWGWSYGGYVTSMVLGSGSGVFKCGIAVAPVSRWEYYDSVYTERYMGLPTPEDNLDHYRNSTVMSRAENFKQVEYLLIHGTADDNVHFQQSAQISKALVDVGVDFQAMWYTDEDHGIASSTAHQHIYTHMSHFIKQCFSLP
Protocol: (§1) The plasma DPP-IV inhibitory activity of human and rat was measured by the fluorescence assay method.
(§2) The inhibitory rate relative to the solvent addition group was calculated and IC50 values were determined by logistic analysis.

Rat plasma DPP-IV = target: T2, Rat plasma DPP-IV (Rattus norvegicus, UniProt P14740); experiment: Plasma DPP-IV inhibitory activity, fluorescence assay (rat plasma); format: biochemical; conditions: rat plasma (10-fold diluted), Gly-Pro-MCA substrate, room temperature 60 min
T2 construct: from tissue; host or cells: rat plasma
T2 sequence (P14740 37-767 limits assumed): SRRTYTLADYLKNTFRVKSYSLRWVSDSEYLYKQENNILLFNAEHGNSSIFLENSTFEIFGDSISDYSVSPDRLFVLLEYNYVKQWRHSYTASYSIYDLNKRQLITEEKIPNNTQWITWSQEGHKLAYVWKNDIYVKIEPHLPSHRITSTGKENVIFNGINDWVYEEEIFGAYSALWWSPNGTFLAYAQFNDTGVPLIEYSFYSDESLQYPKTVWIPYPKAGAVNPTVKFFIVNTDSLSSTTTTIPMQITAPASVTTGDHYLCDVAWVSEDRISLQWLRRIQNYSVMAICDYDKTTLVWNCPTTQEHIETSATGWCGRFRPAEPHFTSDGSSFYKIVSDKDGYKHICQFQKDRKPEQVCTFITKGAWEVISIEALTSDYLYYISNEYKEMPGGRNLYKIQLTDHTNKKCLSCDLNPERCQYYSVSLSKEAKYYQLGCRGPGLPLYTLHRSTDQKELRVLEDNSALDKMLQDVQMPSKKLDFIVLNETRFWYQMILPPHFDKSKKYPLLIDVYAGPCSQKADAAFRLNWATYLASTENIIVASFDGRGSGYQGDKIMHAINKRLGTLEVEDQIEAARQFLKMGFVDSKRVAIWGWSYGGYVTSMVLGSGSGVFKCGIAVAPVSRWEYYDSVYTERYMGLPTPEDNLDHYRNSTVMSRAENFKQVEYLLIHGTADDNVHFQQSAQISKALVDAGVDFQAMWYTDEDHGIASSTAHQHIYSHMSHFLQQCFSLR
Protocol: as §1, §2

| SMILES | pIC50 (Human plasma DPP-IV) | pIC50 (Rat plasma DPP-IV) |
| --- | --- | --- |
| O=C([C@@H]1C[C@H](N2CCN(c3ccc([N+](=O)[O-])cn3)CC2)CN1)N1CCCC1 [Example 186, 1-{(2S,4S)-4-[4-(5-nitro-2-pyridyl)-1-piperazinyl]-2-pyrrolidinylcarbonyl}pyrrolidine trihydrochloride] | 8.43 | 8.38 |
| N#C[C@@H]1CCCN1C(=O)[C@@H]1C[C@H](Nc2ccc(C(F)(F)F)cn2)CN1 [Example 20, (S)-2-cyano-1-[(2S,4S)-4-(5-trifluoromethyl-2-pyridyl)amino-2-pyrrolidinylcarbonyl]pyrrolidine 2 trifluoroacetate] | 9.27 | 9.39 |
| O=C([C@@H]1C[C@H](N2CCC(c3nn(CCN4CCOCC4)c(=O)o3)CC2)CN1)N1CCSC1 [Example 296, 3-((2S,4S)-4-{4-[4-(2-morpholinoethyl)-5-oxo-4,5-dihydro-1,3,4-oxadiazol-2-yl]piperidino}-2-pyrrolidinylcarbonyl)-1,3-thiazolidine trihydrochloride] | 8.96 | 8.72 |
| O=C([C@@H]1C[C@H](N2CCC(c3nc4ccc(F)cc4[nH]3)CC2)CN1)N1CCSC1 [Example 303, 3-{(2S,4S)-4-[4-(5-fluoro-2-benzimidazolyl)piperidino]-2-pyrrolidinylcarbonyl}-1,3-thiazolidine trihydrochloride] | 9.21 | 8.96 |
| N#C[C@@H]1CCCN1C(=O)[C@@H]1C[C@H](Nc2ncccn2)CN1 [Example 24, (S)-2-cyano-1-[(2S,4S)-4-(2-pyrimidinyl)amino-2-pyrrolidinylcarbonyl]pyrrolidine hydrochloride] | 9.29 | 9.19 |
| N#C[C@@H]1CCCN1C(=O)[C@@H]1C[C@H](NCc2ccc([N+](=O)[O-])cc2)CN1 [Example 29, (S)-2-cyano-1-[(2S,4S)-4-(4-nitrophenylmethyl)amino-2-pyrrolidinylcarbonyl]pyrrolidine dihydrochloride] | 9.52 | 9.66 |
| CN(Cc1cccc(C#N)c1)[C@@H]1CN[C@H](C(=O)N2CCSC2)C1 [Example 99, 3-{(2S,4S)-4-[N-(3-cyanophenylmethyl)-N-methylamino]-2-pyrrolidinylcarbonyl}-1,3-thiazolidine dihydrochloride] | 8.17 | 8.03 |
| O=C([C@@H]1C[C@H](N2CCN(c3nc4ccc(C(F)(F)F)cc4s3)CC2)CN1)N1CCSC1 [Example 242, 3-{(2S,4S)-4-[4-(6-trofluoromethyl-2-benzothiazolyl)-1-piperazinyl]-2-pyrrolidinylcarbonyl}-1,3-thiazolidine dihydrochloride] | 9.48 | 9.47 |
| CCOC(=O)CN(CC(=O)OCC)[C@@H]1CN[C@H](C(=O)N2CCC[C@H]2C#N)C1 [Example 39, (S)-2-cyano-1-{(2S,4S)-4-[N,N-bis(ethoxycarbonylmethyl)amino]-2-pyrrolidinylcarbonyl}pyrrolidine dihydrochloride] | 8.96 | 9.26 |
| O=C(O)c1ccc(N2CCN([C@@H]3CN[C@H](C(=O)N4CCSC4)C3)CC2)nc1 [Example 212, 3-{(2S,4S)-4-[4-(5-carboxy-2-pyridyl)-1-piperazinyl]-2-pyrrolidinylcarbonyl}-1,3-thiazolidine trihydrochloride] | 9.35 | 9.12 |
| O=C([C@@H]1C[C@H](N2CCC(c3cc4ccccc4s3)CC2)CN1)N1CCSC1 [Example 143, 3-{(2S,4S)-4-[4-(2-benzo[b]thienyl)piperidino]-2-pyrrolidinylcarbonyl}-1,3-thiazolidine dihydrochloride] | 8.82 | 8.68 |
